Among the data in PubChem BioAssay (NCI) are GI50 and TGI values, retold here.

Among the test systems are A549 NSCLC; HL-60(TB) leukemia; HT29 colon; MDA-MB-231 breast; MDA-MB-435; NCI-H23 lung; OVCAR-8 ovarian; PC-3 prostate; T-47D breast; SR leukemia.
What all share (test): inhibition of tumour cell growth, NCI panel, 48 h

Structures are written as SMILES.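 Compound exposure: 48 hours, 5 concentrations, 96-well plates. GI50 = concentration required for 50% inhibition of growth. Definition used: TGI = concentration required for complete inhibition of growth.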 A value given as a limit tells only on which side of the number the result lay.

On to `CCCCCCCC/C=C/CCCCCCCC1=NCC[N+]1(CCO)CCO`, for which the GI50 was 2.77 µM in the test with A549 NSCLC; 1.75 µM in the test with HL-60(TB) leukemia; 1.38 µM in the test with HT29 colon; 2.47 µM with MDA-MB-231 breast; 2.35 µM with MDA-MB-435; 3.05 µM in the test on NCI-H23 lung. The GI50 in the test on OVCAR-8 ovarian is 2.66 µM; with PC-3 prostate it was 1.97 µM; in the test with T-47D breast, 7.08 µM. Also, the TGI with A549 NSCLC was found to be 10.9 µM; in the test on HL-60(TB) leukemia, 4.68 µM; with HT29 colon, 3.25 µM; in the test on MDA-MB-231 breast, 8.81 µM; with MDA-MB-435 it was 7.95 µM; in the test with NCI-H23 lung, 16 µM. For the same compound, the TGI in the test with OVCAR-8 ovarian was determined as 10 µM; in the test on PC-3 prostate it was 6.17 µM; in the test on T-47D breast, 22.7 µM.

As for `CCOc1ccc([C@@H]2[C@@H](Oc3ccccc3)C(=O)N2c2cc(OC)c(OC)c(OC)c2)cc1`, the GI50 was 0.215 µM with A549 NSCLC; 0.0263 µM in the test on HL-60(TB) leukemia; 0.0491 µM in the test on HT29 colon; 0.177 µM in the test with MDA-MB-231 breast; 0.467 µM in the test with NCI-H23 lung; 0.0463 µM with OVCAR-8 ovarian. The GI50 was 0.0706 µM with PC-3 prostate, 0.0483 µM with SR leukemia and 9.48 µM in the test with T-47D breast. Besides, the TGI was over 100 µM with A549 NSCLC; 0.0691 µM with HL-60(TB) leukemia; 0.522 µM in the test on HT29 colon; over 100 µM with MDA-MB-231 breast; over 100 µM in the test with NCI-H23 lung; over 100 µM with OVCAR-8 ovarian. Besides, the TGI with PC-3 prostate, with SR leukemia and with T-47D breast was over 100 µM each time.

Take `Cc1cccc(Oc2nccc(-c3c(-c4ccc(F)cc4)ncn3C3CCNCC3)n2)c1C`: the GI50 was over 14.3 µM with A549 NSCLC; 9.38 µM in the test on HL-60(TB) leukemia; 4.68 µM with HT29 colon; 5.42 µM with MDA-MB-231 breast; 6.52 µM in the test on MDA-MB-435; 10.7 µM in the test with OVCAR-8 ovarian. The GI50 in the test on PC-3 prostate is 9.94 µM; in the test on T-47D breast it was 4.92 µM. Moreover, the TGI in the test with A549 NSCLC is over 25 µM; in the test with HL-60(TB) leukemia it was over 22.4 µM; with HT29 colon, 10.8 µM; in the test with MDA-MB-231 breast, 13.9 µM; in the test with MDA-MB-435, over 16.1 µM; in the test with OVCAR-8 ovarian, over 23.5 µM. Moreover, the values for the TGI in the test on PC-3 prostate and in the test on T-47D breast were over 23.2 µM and 10.6 µM, respectively.

Take `NS(=O)(=O)c1cc2c(cc1Cl)NC(Cc1ccccc1)NS2(=O)=O` (configuration not stated): the TGI in the test with A549 NSCLC, in the test with HT29 colon, in the test on MDA-MB-231 breast, in the test on MDA-MB-435, in the test with NCI-H23 lung and in the test on OVCAR-8 ovarian was over 100 µM throughout. Further, the TGI in the test on PC-3 prostate, with SR leukemia and in the test with T-47D breast was over 100 µM in each case.

In the case of `C=C1C[C@](OC)([C@H](O)C(=O)N[C@@H](OC)[C@@H]2C[C@@H](O)C(C)(C)[C@@H](C[C@@H](COC)OC)O2)O[C@H](C)[C@@H]1C`, the GI50 in the test on A549 NSCLC was 0.00129 µM; in the test on HL-60(TB) leukemia, 0.00411 µM; with HT29 colon, 0.000865 µM; in the test on MDA-MB-231 breast it was 0.00286 µM; in the test on MDA-MB-435, 0.00162 µM; in the test with NCI-H23 lung it was 0.00189 µM. For the same compound, the values for the GI50 in the test with OVCAR-8 ovarian and with T-47D breast were 0.00322 µM and 0.000814 µM, respectively. For the same compound, the TGI was 0.00558 µM in the test on A549 NSCLC; over 1 µM in the test on HL-60(TB) leukemia; 0.0177 µM with HT29 colon; 0.00837 µM in the test with MDA-MB-231 breast; 0.00507 µM in the test on MDA-MB-435; 0.00544 µM in the test with NCI-H23 lung. Further, the values for the TGI in the test on OVCAR-8 ovarian, with SR leukemia and in the test with T-47D breast were 0.0096 µM, over 1 µM and 0.00548 µM, respectively.

Consider `OCCCN=NNc1ccc(-c2nc3ccccc3[nH]2)cc1`, for which the GI50 with A549 NSCLC was 2.62 µM; in the test with HL-60(TB) leukemia, 25.2 µM; with MDA-MB-231 breast, 3.31 µM; in the test with MDA-MB-435, 3.44 µM; in the test with OVCAR-8 ovarian, 3.12 µM; in the test with PC-3 prostate it was 24.1 µM. Further, the GI50 in the test with SR leukemia is 29.9 µM; in the test with T-47D breast, 2.15 µM. Besides, the TGI in the test with A549 NSCLC is over 100 µM; in the test with HL-60(TB) leukemia, 96.2 µM; in the test on MDA-MB-231 breast it was 12.7 µM; in the test on MDA-MB-435, 16.1 µM; with OVCAR-8 ovarian, over 100 µM; in the test on PC-3 prostate, 77.5 µM. Besides, the values for the TGI in the test on SR leukemia and with T-47D breast were over 100 µM and 6.65 µM, respectively.

Take `O=C(O)C1C(C(=O)Nc2ccc3c(c2)Cc2ccccc2-3)C2(Cl)C(Cl)=C(Cl)C1(Cl)C2(Cl)Cl` (configuration not stated): the TGI in the test on A549 NSCLC is over 100 µM; in the test on HL-60(TB) leukemia it was 55.8 µM; in the test with HT29 colon, 41.7 µM; in the test with MDA-MB-231 breast, 41.6 µM; with MDA-MB-435, 76.8 µM; with NCI-H23 lung, 31.3 µM. Further, the TGI in the test on OVCAR-8 ovarian was 43 µM; in the test on PC-3 prostate, 30 µM; in the test on T-47D breast, over 100 µM.

As for `Cc1cc2cc3cc(C)c(N(C)C)cc3nc2cc1N(C)C`, the GI50 in the test with A549 NSCLC was 3 µM; with HL-60(TB) leukemia, 0.34 µM; in the test with HT29 colon, 1.55 µM; in the test with MDA-MB-231 breast, 2.33 µM; in the test with MDA-MB-435, 2.77 µM; with NCI-H23 lung it was 1.8 µM. The results for the GI50 in the test on OVCAR-8 ovarian, with PC-3 prostate and with T-47D breast were 2.83 µM, 2.4 µM and 1.6 µM, respectively. In addition, the TGI in the test with A549 NSCLC is over 100 µM; in the test with HL-60(TB) leukemia, over 100 µM; in the test on HT29 colon, 23.8 µM; in the test on MDA-MB-231 breast it was 7.59 µM; in the test with MDA-MB-435, 11.8 µM; in the test with NCI-H23 lung, 20.8 µM. For the same compound, the TGI in the test on OVCAR-8 ovarian is 28.1 µM; with PC-3 prostate, 39.9 µM; in the test with T-47D breast, over 100 µM.

With `CS(=O)CCCCCN=C=S` (configuration not stated), the GI50 in the test on A549 NSCLC is 7.52 µM; in the test on HT29 colon, 3.47 µM; in the test with MDA-MB-231 breast, 4.76 µM; in the test on MDA-MB-435 it was 3.57 µM; in the test on NCI-H23 lung it was 4.21 µM; with OVCAR-8 ovarian, 4.93 µM. Moreover, the GI50 with PC-3 prostate was 11.6 µM; in the test with T-47D breast it was 2.32 µM. The TGI was 24.2 µM with A549 NSCLC; 11.1 µM in the test with HT29 colon; 17.4 µM in the test on MDA-MB-231 breast; 15.8 µM in the test on MDA-MB-435; 24.5 µM in the test on NCI-H23 lung; 22.1 µM with OVCAR-8 ovarian. Also, the TGI in the test on PC-3 prostate worked out at 25.6 µM; with T-47D breast, 7.56 µM.
